{
  "source": "ChEMBL document CHEMBL3994663",
  "about": "“Iminosugar-based ceramide mimicry for the design of new CERT START domain ligands” (Bioorg Med Chem, 2017)",
  "data": [
    {"target": "T1, Ceramide transfer protein (Homo sapiens) (UniProt Q9Y5P4)", "T1 sequence (whole entry)": "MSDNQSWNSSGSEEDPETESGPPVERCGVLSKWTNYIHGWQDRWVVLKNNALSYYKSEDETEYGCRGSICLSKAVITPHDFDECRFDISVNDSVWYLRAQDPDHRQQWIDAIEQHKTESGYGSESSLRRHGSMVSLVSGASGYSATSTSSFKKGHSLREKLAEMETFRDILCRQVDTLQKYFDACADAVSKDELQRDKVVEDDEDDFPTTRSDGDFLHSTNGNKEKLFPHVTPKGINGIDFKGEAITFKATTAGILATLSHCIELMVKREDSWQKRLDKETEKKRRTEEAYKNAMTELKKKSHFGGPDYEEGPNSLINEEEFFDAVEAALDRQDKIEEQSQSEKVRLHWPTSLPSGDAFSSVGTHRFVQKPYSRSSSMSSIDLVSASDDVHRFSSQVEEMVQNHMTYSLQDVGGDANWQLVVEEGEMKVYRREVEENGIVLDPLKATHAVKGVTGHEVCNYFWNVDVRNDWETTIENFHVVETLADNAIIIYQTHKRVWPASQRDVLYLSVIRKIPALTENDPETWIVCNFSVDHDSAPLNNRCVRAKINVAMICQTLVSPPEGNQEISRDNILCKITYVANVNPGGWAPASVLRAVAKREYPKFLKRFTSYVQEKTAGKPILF", "assay": "Inhibition of fluorescent ceramide probe binding to recombinant His-tagged START domain of CERT (unknown origin) assessed as bound fluorescent ceramide probe level at 200 pmol preincubated for 30 mins followed by ceramide probe addition after 30 mins by FLINT assay (reference value: 28.4 +/- 2.75%)", "design": "scale not given: the % may be the effect or the level left", "units": {"Activity": "%"}, "values": [
      {"smiles": "CCCCCCCCCCCCO[C@@H]1CN(CCCCCCCCCCCC)C[C@@H](O)[C@@H]1O", "Activity": 54.3},
      {"smiles": "CCCCCCCCCCCCN1C[C@@H](O)[C@H](O)[C@@H](O)C1", "Activity": 48},
      {"smiles": "CCCCCCCCCCCC(=O)N[C@@H](CO)C[C@H](O)c1ccccc1", "Activity": 25.5},
      {"smiles": "CCCCCCCCCCCCO[C@H]1CNC[C@@H](O)[C@@H]1O", "Activity": 41},
      {"smiles": "CCCCCCCCCCCCO[C@H]1CN(CCCCCCCCCCCC)C[C@@H](O)[C@@H]1O", "Activity": 30.1},
      {"smiles": "CCCCCCCCCCCCO[C@@H]1CNC[C@@H](O)[C@@H]1O", "Activity": 61.3},
      {"smiles": "CCCCCCCCCCCCO[C@H]1CNC[C@@H](OCCCCCCCCCCCC)[C@@H]1O", "Activity": 51.1},
      {"smiles": "O[C@H]1[C@H](O)CNC[C@@H]1O", "Activity": 36.6}
    ]}
  ]
}
